From US20240016875A1, “SHAN-ZHA FOR THE TREATMENT OF DEPRESSION AND ANXIETY DISORDERS” (THE OPEN UNIVERSITY, priority 2020, published 2024)
Entries after “also recorded” stand apart in the source; their conditions may differ.

Key:
stressed mice [1] = assay: Evaluation of sexual function (number of mounts), stressed mice; format: in vivo; settings: UCMS-stressed male mice, 30 min with female in estrus, Shan-zha and NHT 30 mg/kg, escitalopram 15 mg/kg i.p., 3 weeks, vs vehicle
Method: Crataegus pinnatifida, Triticum aestivum, Lilium brownii and Fructus zizyphi jujuba were purchased as freeze-dried granules (KPC Products, Inc., Irvine, CA, USA). Each herb was dissolved in saline with 1% dimethylsulfoxide (DMSO) to a final concentration of 0.47 mg/ml and injected i.p. individually (30 mg/kg) or with the other components to form the formula (NHT, 30 mg/kg). […] Vehicle treatment included i.p. injection of saline with 1% DMSO. All treatments were carried out for 3 weeks. Each male mouse was placed with a female mouse in estrus in the male's home cage during the dark phase under red dim light for 30 min. Number of mounts were coded by an observer blind to the treatment.

stressed mice [2] = assay: Tail suspension test (TST), UCMS-stressed mice, Examples 1-3; format: in vivo; settings: UCMS-stressed male ICR mice; herbs and NHT 30 mg/kg, escitalopram 15 mg/kg i.p., 3 weeks; vs vehicle
stressed mice [3] = assay: Open field test (OFT), locomotor activity, Examples 1-3; format: in vivo; settings: UCMS-stressed male ICR mice; herbs and NHT 30 mg/kg, escitalopram 15 mg/kg i.p., 3 weeks
Method: ICR outbred 28-30 days old male mice (Envigo, Israel) were maintained in the vivarium of the Open University lab in Hadassah Ein Karem medical cement, Jerusalem. Mice were group housed (5 mice per cage) and each cage contained mice from all treatment groups. Mice were given ad libitum access to food and water except during stressor application (with the exclusion of the light/dark cycle reversal). Mice kept on a reversed 12 h light/dark cycle (lights on 7:00 pm-7:00 am) while experimental procedures were performed during the dark phase under red light. All experiments were approved by the Open University of Israel committee for animal care and use. Methods were carried out in accordance with the NIH guidelines.
Crataegus pinnatifida, Triticum aestivum, Lilium brownii and Fructus zizyphi jujuba were purchased as freeze-dried granules (KPC Products, Inc., Irvine, CA, USA). […]
The open field consists of an empty square arena (40×40×40 cm) and surrounded by Perspex opaque walls. Each mouse was placed in the center of the arena and video recorded for 5 min. […] Locomotor activity was expressed as the percentage of time that the mouse was moving in the arena in a velocity above 0.1 pixel/sec. […]

BDNF = BDNF ELISA of hippocampus and PFC, stressed mice; format: in vivo; settings: UCMS-stressed mice; herbs and NHT 30 mg/kg, escitalopram 15 mg/kg i.p., 3 weeks; vs vehicle
Method: Mice were decapitated, and their brains were placed on ice. Serial sections (1 mm wide) were cut onto slides, and tissue punches of the hippocampus and PFC (1.7 mm diameter) were taken. Tissue punches were homogenized in cold extraction buffer (Tris-buffered saline, pH 8.0, with 1% NP-40, 10% glycerol, 5 mM sodium metavanadate, 10 mM PMSF, 100 μg/ml aprotinin and 10 μg/ml leupeptin). Homogenates were acidified with 0.1 M HCl (pH 3.0), incubated at room temperature (22-24° C.) for 15 min, and neutralized (pH 7.6) with 0.1 M NaOH. Homogenates were then microfuged at 7000×g for 10 min. BDNF levels were quantified using sandwich ELISA (R&D systems, Minneapolis, MN, USA) according to the manufacturer's instructions.

dams = assay: EPM in dams after restrain stress during gestation; format: in vivo, mice; settings: PND21, 15 mg/kg s.c. daily PND1-PND21
Method: (§1) The EPM task was performed as previously described. Shortly, each mouse was placed in the center of the maze and video recorded for 5 min. Anxiety-like behavior was expressed as the time the mouse spent in the open, unprotected arms of the maze.
(§2) Female (n=40) and male (n=5) ICR outbred mice (100 days old; Envigo RMS, Jerusalem, Israel) were housed at 22±1° C. under 12 h light/dark cycles in the vivarium of the Open University lab in Hadassah medical center, Jerusalem. Mice had ad libitum access to rodent chow and water. Mice were housed in standard cages with a bed of woodchips and a piece of cotton wool for enrichment. All experiments were performed during the dark phase of the cycle. Male mice were used to father pups and were housed apart (5 per cage) from females until mating. […] Once a vaginal plug was identified, the females were transferred to a separate cage until parturition. Overall, 455 pups were delivered of which 317 (male: n=165; female: n=152) were designated for this study. Unassessed pups were maintained with littermates to avoid additional stress and ensure similar conditions. […]
(§3) Following mating, dams were separated to individual cages and were observed periodically to ensure onset of pregnancy. […] Shortly after, anxiety-like behavior was assessed on the EPM and dams were assigned to treatment group (escitalopram/shan-zha/vehicle). […]

21 days old pups = assay: EPM in 21 days old pups treated via lactation; format: in vivo, mice
Method: as §1, §2, §3

CN(C)CCC[C@@]1(c2ccc(F)cc2)OCc2cc(C#N)ccc21 [escitalopram]
sexual function (number of mounts) (stressed mice [1]): significantly reduced sexual function compared to vehicle | sexual function (number of mounts) (stressed mice [1]; listed as Escitalopram): lower number of mounts in comparison with vehicle-treated mice | time spent immobile in the TST (depressive-like behavior) (stressed mice [2]): spent less time immobile in comparison with vehicle-treated mice; also recorded: reduced depressive-like behavior in the Tail suspension test (TST) compared to vehicle | locomotor activity in the OFT (stressed mice [3]): No change in locmotor activity | BDNF levels in the PFC (BDNF): elevations in BDNF levels in the PFC compared to vehicle-treated mice; also recorded: elevated BDNF levels in the PFC compared to vehicle | hippocampal BDNF levels (BDNF): elevations in hippocampal BDNF levels compared to vehicle-treated mice; also recorded: elevated hippocampal BDNF levels compared to vehicle | anxiety-like behavior in the EPM, treated stressed dams vs saline-treated stressed dams (dams; restrain stress during gestation, 15 mg/kg): saline-treated stressed dams demonstrated elevated anxiety-like behavior compared to both shan-zha- and escitalopram-treated stressed dams; also recorded: the stress-vehicle group demonstrated increased anxiety-like behavior compared to the naïve-vehicle, stress-escitalopram and stress-shan-zha groups | effect of stress manipulation on time spent in open arms within treatment group, dams (dams; stressed vs naive dams): Stress manipulation did not affect time spent in open arms | stress-induced anxiety-like behavior within treatment group, pups (21 days old pups; PND21, stressed vs naive pups): No similar stress-induced anxiety-like behavior was observed | anxiety-like behavior in the EPM, treated stressed pups vs saline-treated stressed pups (21 days old pups; PND21, prenatal stress, treatment via lactation, dams 15 mg/kg s.c. daily): saline-treated stressed pups demonstrated elevated anxiety-like behavior compared to both shan-zha- and escitalopram-treated stressed pups; also recorded: the stress-vehicle group demonstrated increased anxiety-like behavior compared to the naïve-vehicle, stress-escitalopram and stress-shan-zha groups
